For eleven compounds, inhibition results are on record in ChEMBL document CHEMBL3879914, “Inhibitors of central nervous system vasoactive inhibitory peptide receptor 2” (2014).

For experiment [1], the target named is T1, Vasoactive intestinal polypeptide receptor 2 (Homo sapiens) (UniProt P41587).
T1 sequence (whole entry): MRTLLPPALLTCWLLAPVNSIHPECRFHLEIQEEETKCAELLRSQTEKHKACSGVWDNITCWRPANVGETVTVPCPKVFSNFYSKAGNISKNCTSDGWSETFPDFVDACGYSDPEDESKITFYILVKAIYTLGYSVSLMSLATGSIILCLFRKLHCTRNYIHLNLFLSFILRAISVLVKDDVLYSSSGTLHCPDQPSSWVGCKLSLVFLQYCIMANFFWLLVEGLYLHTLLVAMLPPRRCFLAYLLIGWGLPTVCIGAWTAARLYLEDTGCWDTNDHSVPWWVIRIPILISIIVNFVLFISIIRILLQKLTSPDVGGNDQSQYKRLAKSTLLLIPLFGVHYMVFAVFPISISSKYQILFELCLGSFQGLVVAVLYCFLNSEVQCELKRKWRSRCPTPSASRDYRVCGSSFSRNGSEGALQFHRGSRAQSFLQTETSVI
The experiment is described as follows: Antagonist activity at recombinant human N-terminal signal peptide/FLAG epitope-tagged VIPR2 expressed in HEK293 cells co-expressing CAMYEL assessed as inhibition of VIP-induced cAMP accumulation at 0.5 uM preincubated for 5 mins with luciferin, coelenterazine H followed by VIP addition measured after 5 mins by BRET assay relative to control. It is filed as functional, cell-based.

Experiment [2] deals with T1, Vasoactive intestinal polypeptide receptor 2 (Homo sapiens). The experiment is described as follows: Antagonist activity at recombinant human N-terminal signal peptide/FLAG epitope-tagged VIPR2 expressed in HEK293 cells co-expressing CAMYEL assessed as inhibition of VIP-induced cAMP accumulation at 5 uM preincubated for 5 mins with luciferin, coelenterazine H followed by VIP addition measured after 5 mins by BRET assay relative to control. The experiment is classed as functional, cell-based. For orientation: Changes in cAMP serve as a functional read-out for many G protein-coupled receptors.

Experiment [3] shares this target. The experiment is described as follows: Antagonist activity at recombinant human N-terminal signal peptide/FLAG epitope-tagged VIPR2 expressed in HEK293 cells co-expressing CAMYEL assessed as inhibition of VIP-induced cAMP accumulation at 1 uM preincubated for 5 mins with luciferin, coelenterazine H followed by VIP addition measured after 5 mins by BRET assay relative to control. The experiment is classed as functional, cell-based.

The target is the same in experiment [4]. Description: Antagonist activity at recombinant human N-terminal signal peptide/FLAG epitope-tagged Rluc8-fused VIPR2 expressed in HEK293 cells assessed as inhibition of VIP-induced human mVenus-beta-arrestin2 binding at 5 uM preincubated for 5 mins with luciferin, coelenterazine H followed by VIP addition measured after 5 mins by BRET assay relative to control. It is filed as cell-based. (In BRET a luciferase serves as donor, and the signal depends on an acceptor being close.)

Experiment [5] shares this target. Description: Antagonist activity at recombinant human N-terminal signal peptide/FLAG epitope-tagged Rluc8-fused VIPR2 expressed in HEK293 cells assessed as inhibition of VIP-induced human mVenus-beta-arrestin2 binding at 1 uM preincubated for 5 mins with luciferin, coelenterazine H followed by VIP addition measured after 5 mins by BRET assay relative to control. The experiment is classed as cell-based.

Experiment [6] has the same target. Description: Antagonist activity at recombinant human N-terminal signal peptide/FLAG epitope-tagged Rluc8-fused VIPR2 expressed in HEK293 cells assessed as inhibition of VIP-induced human mVenus-beta-arrestin2 binding at 0.5 uM preincubated for 5 mins with luciferin, coelenterazine H followed by VIP addition measured after 5 mins by BRET assay relative to control. The experiment is classed as cell-based.

Structures are written as SMILES.

As for `O=C(NC[C@@H](O)C[C@@H](Cc1ccccc1)C(=O)N[C@H]1c2ccccc2C[C@H]1O)c1ccccc1[N+](=O)[O-]`, the inhibition was 17.6% in experiment [1]; 9.1% in experiment [2]; 14.3% in experiment [3]; 26.1% in experiment [4]; 35.1% in experiment [5]; 17.6 to 36.4% in experiment [6].
On to `O=C(NN1CCCCC1)[C@H](Cc1ccccc1)C[C@H](O)CNS(=O)(=O)c1ccc([N+](=O)[O-])cc1`, for which the inhibition in experiment [1] was 6.3%; in experiment [2], 4.4%; in experiment [3], 7.1%; in experiment [4], 6.5%; in experiment [5] it was 4.4%; in experiment [6] it was -6.4 to 5.45%.
Take `COc1cc(C(=O)NC[C@@H](O)C[C@@H](Cc2ccccc2)C(=O)N[C@H]2c3ccccc3C[C@H]2O)cc(OC)c1OC`: the inhibition was 15.6% in experiment [1]; 9.3% in experiment [2]; 20% in experiment [3]; 18% in experiment [4]; 37.2% in experiment [5]; 13.7 to 29.6% in experiment [6].
As for `CNC(=O)c1ccc(S(=O)(=O)NC[C@@H](O)C[C@@H](Cc2ccccc2)C(=O)N[C@H]2c3ccccc3C[C@H]2O)cc1`, the inhibition in experiment [1] was 13.8%; in experiment [2], 69.5%; in experiment [3] it was 22.1%; in experiment [4], -1%; in experiment [5] it was -1.6%; in experiment [6], 6.3 to 34.2%.
Take `CC(C)CNc1ccc(S(=O)(=O)NC[C@@H](O)C[C@@H](Cc2ccccc2)C(=O)N[C@H]2c3ccccc3C[C@H]2O)cc1`: the inhibition was 21.6% in experiment [1]; 27.4% in experiment [2]; 16.7% in experiment [3]; 11.9% in experiment [4]; 5.2% in experiment [5]; 10.2 to 19.6% in experiment [6].
As to `O=C(NC1Cc2ccccc2C1)[C@H](Cc1ccccc1)C[C@H](O)CNS(=O)(=O)c1ccc([N+](=O)[O-])cc1`, the inhibition is 5.7% in experiment [1]; 16% in experiment [2]; 7.5% in experiment [3]; 9.8% in experiment [4]; 8.1% in experiment [5]; -2.7 to 12.9% in experiment [6].
Turning to `NC(=O)[C@@H](Cc1ccccc1)C[C@H](O)CNS(=O)(=O)c1ccc([N+](=O)[O-])cc1`, the inhibition in experiment [1] is 14.6%; in experiment [2] it was 9.7%; in experiment [3] it was 12.6%; in experiment [4], 7%; in experiment [5] it was -9.8%; in experiment [6] it was 3.5 to 8.35%.
With `O=C([C@@H](Cc1ccccc1)C[C@H](O)CNS(=O)(=O)c1ccc([N+](=O)[O-])cc1)N1CCCCC1`, the inhibition is 14.2% in experiment [1]; 9.4% in experiment [2]; 14.2% in experiment [3]; 14.9% in experiment [4]; 9.2% in experiment [5]; 9.5 to 12.2% in experiment [6].
Take `O=C(N[C@H]1c2ccccc2C[C@H]1O)[C@H](Cc1ccccc1)C[C@H](O)CNS(=O)(=O)c1ccc(C(F)(F)F)cc1`: the inhibition in experiment [1] was 42%; in experiment [2] it was 98.5%; in experiment [3] it was 63.1%; in experiment [4], 92.9%; in experiment [5] it was 83%; in experiment [6], 58.1 to 95.7%.
In the case of `CC(C)Nc1ccc(S(=O)(=O)NC[C@@H](O)C[C@@H](Cc2ccccc2)C(=O)N[C@H]2c3ccccc3C[C@H]2O)cc1`, the inhibition was 17.2% in experiment [1]; 20.6% in experiment [2]; 18.2% in experiment [3]; 11.8% in experiment [4]; -2% in experiment [5]; 8.1 to 16.2% in experiment [6].
Regarding `O=C(NCCc1cccc(Cl)c1)[C@H](Cc1ccccc1)C[C@H](O)CNS(=O)(=O)c1ccc([N+](=O)[O-])cc1`, the inhibition in experiment [1] is -5.5%; in experiment [2], 7.8%; in experiment [3], -3.4%; in experiment [4], -8.6%; in experiment [5], -7.8%; in experiment [6], -6.7 to -0.4%.

In general, inhibition refers to the drop in the measured response relative to a control, in per cent.
